In patent US20180177771A1, “BIOMARKERS FOR NANOPARTICLE COMPOSITIONS” (priority 2015, published 2018):

Tests used:
[1] = test system: UMUC3 human bladder cancer xenografts; assay: UMUC3 bladder cancer mouse xenograft, Part B combination study; details: ABI-009 3 mg/kg twice weekly IV, gemcitabine 30 mg/kg twice weekly IP
Experimental: The anti-tumor efficacy of a panel of drugs, including mitomycin C, cisplatin, gemcitabine, valrubicin, and docetaxel, in combination with Nab-sirolimus (such as ABI-009) were evaluated and compared in a UMUC3 cell xenograft model in athymic nude mice.
Tumors were established from the UMUC3 cells as follows. Female athymic nude mice were obtained and housed in filter-topped cages supplied with autoclaved bedding. Animal handling procedures were under laminar flow hood. Each mouse was ear tagged for individual identification, and the body weight of each mouse was recorded. UMUC3 cells (10×10^6 cells per flank in 0.1 mL PBS with 20% Matrigel) were injected subcutaneously into the right flank of each mouse to implant the tumor. Tumor measurements were recorded three times per week (such as on Mondays, Wednesdays and Fridays) until tumors became approximately 60 to 160 mm^3 total. The mice were randomized for treatment once the average tumor volumes reached approximately 100 mm^2. Prior to the treatment, body weights and tumor measurements of all mice were recorded.
In the Part B combination study, athymic mice bearing UMUC3 human bladder cancer xenografts were treated until study end with ABI-009 (3 mg/kg, twice weekly, IV via tail vein), mitomycin C (0.5 mg/kg, twice weekly, IP), cisplatin (3 mg/kg, twice weekly. IP), gemcitabine (30 mg/kg, twice weekly, IP), valrubicin (20 mg/kg, twice weekly, IP), and docetaxel (3 mg/kg, twice weekly, IP) either as single agent or in combination (ABI-009 plus chemotherapeutic agent). Animals were monitored for tumor volume and body weight.
In each combination of drugs being administered comprising Nab-sirolimus and a second drug (such as MMC. Cis, GEM. Val, and Doc), the second drug was administered immediately before Nab-sirolimus. The mice were monitored during the course of the treatment by recording body weights three times per week (such as on Mondays, Wednesdays and Fridays), recording signs of distress daily, and recording tumor measurements three times per week (such as on Mondays. Wednesdays and Fridays). Measurements of tumor sizes and body weights were continued for 2 weeks following completion of the dosing regimen, or until the mouse was sacrificed when the tumor size of the mouse is more than 2000 mm^3.

ABCB1/ABCG2 = details: cited from earlier work
[2] = in vivo; cited from earlier work

Row | SMILES | animal survival compared with saline control [1] | antitumor activity (tumor growth inhibition) compared with saline control [1] | median survival ([1]; Log-rank test) [days] | TGI ([1]; single agent or combination) [%] | affinity for ABCB1/ABCG2 (ABCB1/ABCG2) | brain penetration [2]
1 | Nc1ccn([C@@H]2O[C@H](CO)[C@@H](O)C2(F)F)c(=O)n1 [gemcitabine] | only modest effects | only modest effects | 20 | 41.7 |  | 
2 | COc1ccc(COc2cc3oc(=O)c4cc(C(C)O)ccc4c3cc2OC)cc1 (stereo not drawn) [Palomid 529] |  |  |  |  | lacks affinity for ABCB1/ABCG2 | good brain penetration
